Source: ChEMBL document CHEMBL1151083, “Synthesis & characterization of N-amino-glyphosate as a potent analog inhibitor of E. coli EPSP synthase” (Bioorg Med Chem Lett, 1993)

Experiments:
[1] = molecular target: T1, 3-phosphoshikimate 1-carboxyvinyltransferase (Escherichia coli K-12, UniProt P0A6D3); assay: Tested for the inhibition against Escherichia coli 5-enolpyruvyl-shikimate-3-phosphate synthase
T1 sequence (P0A6D3 whole entry): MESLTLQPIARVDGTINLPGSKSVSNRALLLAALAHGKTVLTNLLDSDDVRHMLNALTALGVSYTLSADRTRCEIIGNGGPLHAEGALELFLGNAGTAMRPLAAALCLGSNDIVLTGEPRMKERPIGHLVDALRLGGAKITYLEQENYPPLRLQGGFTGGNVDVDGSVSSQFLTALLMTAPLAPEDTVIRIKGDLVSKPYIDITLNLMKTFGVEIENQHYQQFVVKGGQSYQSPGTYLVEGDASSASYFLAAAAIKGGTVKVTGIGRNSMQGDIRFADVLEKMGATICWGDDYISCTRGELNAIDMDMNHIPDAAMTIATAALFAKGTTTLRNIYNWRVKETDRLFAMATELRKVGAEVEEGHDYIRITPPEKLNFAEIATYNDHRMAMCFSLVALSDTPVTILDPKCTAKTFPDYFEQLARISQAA

[2] = molecular target: T1, 3-phosphoshikimate 1-carboxyvinyltransferase; assay: Tested for the inhibition against Escherichia coli 5-enolpyruvyl-shikimate-3-phosphate synthase versus phosphoenolpyruvate
[3] = molecular target: T1, 3-phosphoshikimate 1-carboxyvinyltransferase; assay: Tested for the dissociation constant against Escherichia coli 5-enolpyruvyl-shikimate-3-phosphate synthase
[4] = molecular target: T2, 3-phosphoshikimate 1-carboxyvinyltransferase (Escherichia coli K-12) (UniProt P0A6D3)
T2 sequence (whole entry): T1 sequence (P0A6D3 whole entry)
Description: Tested for the dissociation rate against Escherichia coli 5-enolpyruvyl-shikimate-3-phosphate synthase

[5] = molecular target: T2, 3-phosphoshikimate 1-carboxyvinyltransferase (Escherichia coli K-12); remark: listed apart in the source
Description: Tested for the rate of association against Escherichia coli 5-enolpyruvyl-shikimate-3-phosphate synthase

NC(CC(=O)O)CP(=O)(O)O (stereo not given)
IC50 [1]: > 80 µM

CN(CC(=O)O)CP(=O)(O)O
Ki [2]: 78 µM | IC50 [1]: 150 µM

O=C(O)CN(O)CP(=O)(O)O
Ki [2]: 2.2 µM

NN(CC(=O)O)CP(=O)(O)O
Ki [2]: 0.61 µM | Kd [3]: 0.5 µM | k off [4]: 0.16 s⁻¹ | k on [5]: 320000 M⁻¹ s⁻¹

O=C(O)CNC[PH](=O)O
IC50 [1]: 700 µM

O=NN(CC(=O)O)CP(=O)(O)O
Ki [2]: 2.2 µM

CC(NCC(=O)O)P(=O)(O)O (stereo not given)
IC50 [1]: > 80 µM

CC(NCP(=O)(O)O)C(=O)O (stereo not given)
IC50 [1]: > 80 µM

COC(=O)CNCP(=O)(O)O
IC50 [1]: > 1 µM

O=C(O)CNCP(=O)(O)O
k off [4]: 0.12 s⁻¹ | k on [5]: 780000 M⁻¹ s⁻¹
